Experimental findings from patent US11021493B2, “1,4-thiazine dioxide and 1,2,4-thiadiazine dioxide derivatives as beta-secretase inhibitors and methods of use” (AMGEN INC., priority 2016, dated 2021) are described below.

Where only a bound is given, the exact number is not on record here.

Experiment [1] deals with T1, BACE1 (Homo sapiens (Human), UniProt P56817). Nature of the experiment: In vitro enzymatic BACE1 FRET assay. Type of experiment: biochemical. The conditions noted are these: read-out: BACE1 Enzyme IC50.
Target sequence in this assay (P56817 46-501): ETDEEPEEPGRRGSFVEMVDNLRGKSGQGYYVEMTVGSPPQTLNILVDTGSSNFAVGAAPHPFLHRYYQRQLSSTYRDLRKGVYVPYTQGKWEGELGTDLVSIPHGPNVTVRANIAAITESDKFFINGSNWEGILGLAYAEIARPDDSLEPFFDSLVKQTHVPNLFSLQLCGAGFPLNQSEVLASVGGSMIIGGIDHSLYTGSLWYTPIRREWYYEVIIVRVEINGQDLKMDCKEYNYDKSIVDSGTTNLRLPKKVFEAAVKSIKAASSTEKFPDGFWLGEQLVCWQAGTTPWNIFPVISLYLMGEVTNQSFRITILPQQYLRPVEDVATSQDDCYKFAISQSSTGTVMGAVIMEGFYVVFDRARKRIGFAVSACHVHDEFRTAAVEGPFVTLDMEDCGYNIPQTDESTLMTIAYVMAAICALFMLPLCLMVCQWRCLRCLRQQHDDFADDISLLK
A further experiment addresses human recombinant BACE2 (Homo sapiens (Human), UniProt Q9Y5Z0). Nature of the experiment: In vitro enzymatic BACE2 FRET assay. It counts as biochemical. As to conditions: read-out: BACE2 Enzyme IC50.
The next experiment has as its target Cathepsin D (CatD) (Homo sapiens (Human), UniProt P07339). Nature of the experiment: In vitro enzymatic Cathepsin D (CatD) FRET assay. The conditions noted are these: read-out: Cat D Enzyme IC50. It counts as biochemical.
Experiment [2] concerns the target T1, BACE1. The experiment is described as follows: In vitro BACE1 cell-based assay (Aβ40 in conditioned medium of cells stably expressing APP, HTRF). As to conditions: Aβ40 in conditioned media after 24 h incubation.
Target sequence in this assay (P56817 46-501, species assumed): as the sequence (P56817 46-501) above

Sequence of Cathepsin D (CatD) (P07339 65-412, species assumed): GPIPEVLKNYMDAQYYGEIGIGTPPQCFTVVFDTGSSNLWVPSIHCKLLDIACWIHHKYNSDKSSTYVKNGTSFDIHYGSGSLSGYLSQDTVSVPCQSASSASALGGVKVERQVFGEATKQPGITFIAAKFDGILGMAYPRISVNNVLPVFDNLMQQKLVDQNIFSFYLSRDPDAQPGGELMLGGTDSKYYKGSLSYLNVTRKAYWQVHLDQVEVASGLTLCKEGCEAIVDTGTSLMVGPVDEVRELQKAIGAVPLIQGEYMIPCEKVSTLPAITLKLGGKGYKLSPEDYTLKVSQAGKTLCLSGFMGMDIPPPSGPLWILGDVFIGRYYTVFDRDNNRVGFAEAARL
Sequence of human recombinant BACE2 (Q9Y5Z0 63-518): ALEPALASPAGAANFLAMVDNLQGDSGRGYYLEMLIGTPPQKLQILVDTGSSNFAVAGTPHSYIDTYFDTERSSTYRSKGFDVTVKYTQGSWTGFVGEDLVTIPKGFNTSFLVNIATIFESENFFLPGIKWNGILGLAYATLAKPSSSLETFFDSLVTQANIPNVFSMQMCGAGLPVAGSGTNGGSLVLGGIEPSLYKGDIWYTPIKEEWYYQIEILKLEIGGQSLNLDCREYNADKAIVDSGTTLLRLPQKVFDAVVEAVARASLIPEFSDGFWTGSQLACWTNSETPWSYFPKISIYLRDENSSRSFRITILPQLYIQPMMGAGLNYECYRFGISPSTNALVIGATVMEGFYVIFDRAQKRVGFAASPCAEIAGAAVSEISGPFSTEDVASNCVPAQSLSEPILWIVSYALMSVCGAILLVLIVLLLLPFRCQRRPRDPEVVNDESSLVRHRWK

For `CC1(C)C(N)=N[C@](C)(c2cc(/C=C(\F)c3ccc(C#N)cn3)cc(F)c2F)CS1(=O)=O` [Example 192, (R,Z)-6-(2-(3-(5-amino-3,6,6-trimethyl-1,1-dioxido-3,6-dihydro-2H-1,4-thiazin-3-yl)-4,5-difluorophenyl)-1-fluorovinyl)nicotinonitrile], the IC50 (usually the point on the concentration scale where inhibition reaches its midpoint) came out at 12 nM at BACE1 [1], 46 nM on human recombinant BACE2, 76100 nM on Cathepsin D (CatD) and 35 nM against BACE1 [2].

In the case of `CC1(C)C(N)=N[C@](C)(c2cc(/C=C(\F)c3cnc(OCCn4cc(Br)cn4)cn3)ccc2F)CS1(=O)=O` [Example 156, (R,Z)-5-amino-3-(5-(2-(5-(2-(4-bromo-1H-pyrazol-1-yl)ethoxy)pyrazin-2-yl)-2-fluorovinyl)-2-fluorophenyl)-3,6,6-trimethyl-3,6-dihydro-2H-1,4-thiazine 1,1-dioxide], the IC50 on BACE1 [1] was found to be 96 nM; at human recombinant BACE2, 671 nM; on Cathepsin D (CatD) it was 90500 nM; against BACE1 [2] it was 1320 nM.

Regarding `CN1C(N)=N[C@](C)(c2cc(/C=C(\F)c3ccc4c(n3)OCCO4)ccc2F)CS1(=O)=O` [Example 255, (5R)-5-(5-((Z)-2-(2,3-dihydro[1,4]dioxino[2,3-b]pyridin-6-yl)-2-fluoroethenyl)-2-fluorophenyl)-2,5-dimethyl-5,6-dihydro-2H-1,2,4-thiadiazin-3-amine 1,1-dioxide], the concentration for half-maximal inhibition (IC50) at BACE1 [1] was 3840 nM; on human recombinant BACE2, 458 nM; on Cathepsin D (CatD), 122000 nM; on BACE1 [2], 3020 nM.

As to `CC#C[C@H](C)Oc1cnc(/C(F)=C/c2ccc(F)c([C@]3(C)CS(=O)(=O)C(C)(C)C(N)=N3)c2)cn1` (single isomer, unassigned) [Example 208], the IC50 amounted to 1 nM on BACE1 [1], 107 nM at human recombinant BACE2, 79500 nM at Cathepsin D (CatD) and 5 nM against BACE1 [2].

In the case of `C[C@]1(c2cc(/C=C(\F)c3ccc(C#N)cn3)ccc2F)N=C(N)C2(CF)CC[C@@H]1S2(=O)=O` (stereo in doubt) [Example 102, 6-((Z)-2-(3-((1S,2R,5R)-4-amino-5-(fluoromethyl)-2-methyl-8,8-dioxido-8-thia-3-azabicyclo[3.2.1]oct-3-en-2-yl)-4-fluorophenyl)-1-fluorovinyl)nicotinonitrile], the IC50 on BACE1 [1] was 5 nM; at human recombinant BACE2 it was 32 nM; at Cathepsin D (CatD), greater than 133000 nM; on BACE1 [2], 17 nM.

For the molecule `C#CCOc1cnc(/C(F)=C/c2ccc(F)c([C@]3(C)CS(=O)(=O)C4(CCC4)C(N)=N3)c2)cn1` [Example 149, (R,Z)-9-amino-7-(2-fluoro-5-(2-fluoro-2-(5-(prop-2-yn-1-yloxy)pyrazin-2-yl)vinyl)phenyl)-7-methyl-5-thia-8-azaspiro[3.5]non-8-ene 5,5-dioxide], the IC50 on BACE1 [1] worked out at 2 nM; at human recombinant BACE2, 51 nM; at Cathepsin D (CatD), 110000 nM; against BACE1 [2], 3 nM.

On to `Cc1noc(COc2cnc(/C(F)=C/c3ccc(F)c([C@]4(C)CS(=O)(=O)C(C)(C)C(N)=N4)c3)cn2)n1` [Example 175, (R,Z)-5-amino-3-(2-fluoro-5-(2-fluoro-2-(5-((3-methyl-1,2,4-oxadiazol-5-yl)methoxy)pyrazin-2-yl)vinyl)phenyl)-3,6,6-trimethyl-3,6-dihydro-2H-1,4-thiazine 1,1-dioxide], for which the IC50 on BACE1 [1] was found to be 88 nM; on human recombinant BACE2 it was 225 nM; on Cathepsin D (CatD), 124000 nM; against BACE1 [2] it was 53 nM.

Consider `CC1(C)C(N)=N[C@](C)(c2cc(/C=C(\F)c3cc4c(cn3)OCCO4)ccc2F)[C@H](F)S1(=O)=O` (single isomer, unassigned) [Example 214], for which the IC50 at BACE1 [1] amounted to 225 nM; on human recombinant BACE2, 851 nM; on Cathepsin D (CatD), 303000 nM; on BACE1 [2] it was 5940 nM.

For `CC1(C)C(N)=N[C@](C)(c2cc(/C=C(\F)c3cnc(OCC(F)(F)C(F)F)cn3)ccc2F)CS1(=O)=O` [Example 141, (R,Z)-5-amino-3-(2-fluoro-5-(2-fluoro-2-(5-(2,2,3,3-tetrafluoropropoxy)pyrazin-2-yl)vinyl)phenyl)-3,6,6-trimethyl-3,6-dihydro-2H-1,4-thiazine 1,1-dioxide], the IC50 worked out at 55 nM on BACE1 [1], 330 nM on human recombinant BACE2, 96200 nM at Cathepsin D (CatD) and 229 nM against BACE1 [2].

With `CC#CCOc1cnc(/C(F)=C/c2ccc(F)c([C@]3(C)CS(=O)(=O)C(C)(C)C(N)=N3)c2)cn1` [Example 154, (R,Z)-5-amino-3-(5-(2-(5-(but-2-yn-1-yloxy)pyrazin-2-yl)-2-fluorovinyl)-2-fluorophenyl)-3,6,6-trimethyl-3,6-dihydro-2H-1,4-thiazine 1,1-dioxide], the IC50 was 1 nM on BACE1 [1], 34 nM at human recombinant BACE2, 109000 nM on Cathepsin D (CatD) and 2 nM at BACE1 [2].

Turning to `CN1C(N)=N[C@](C)(c2cc(/C=C(\F)c3ccc(C(F)(F)F)cn3)ccc2F)CS1(=O)=O` [Example 244, (5R)-5-(2-fluoro-5-((Z)-2-fluoro-2-(5-(trifluoromethyl)-2-pyridinyl)ethenyl)phenyl)-2,5-dimethyl-5,6-dihydro-2H-1,2,4-thiadiazin-3-amine 1,1-dioxide], the IC50 at BACE1 [1] stood at 6 nM; on human recombinant BACE2, 31 nM; on Cathepsin D (CatD), 206000 nM; on BACE1 [2] it was 8 nM.

With `C#C[C@H](C)Oc1cnc(/C(F)=C/c2ccc(F)c([C@]3(C)CS(=O)(=O)N(C)C(N)=N3)c2)cn1` [Example 171, (R)-3-amino-5-(5-((Z)-2-(5-((S)-but-3-yn-2-yloxy)pyrazin-2-yl)-2-fluorovinyl)-2-fluorophenyl)-2,5-dimethyl-5,6-dihydro-2H-1,2,4-thiadiazine 1,1-dioxide], the IC50 at BACE1 [1] amounted to 5 nM; at human recombinant BACE2, 142 nM; at Cathepsin D (CatD), 17000 nM; at BACE1 [2] it was 6 nM.

In the case of `CN1C(N)=N[C@](C)(c2cc(/C=C(\F)c3cc4c(cn3)OCO4)ccc2F)CS1(=O)=O` [Example 257, (5R)-5-(5-((Z)-2-([1,3]dioxolo[4,5-c]pyridin-6-yl)-2-fluoroethenyl)-2-fluorophenyl)-2,5-dimethyl-5,6-dihydro-2H-1,2,4-thiadiazin-3-amine 1,1-dioxide], the IC50 was determined as 207 nM at BACE1 [1], 235 nM on human recombinant BACE2, 237000 nM at Cathepsin D (CatD) and 102 nM against BACE1 [2].

For `Cc1cnc(COc2cnc(/C(F)=C/c3ccc(F)c([C@@]4(C)N=C(N)N(C)S(=O)(=O)C45CC5)c3)cn2)o1` [Example 169, (8R)-8-(2-fluoro-5-((Z)-2-fluoro-2-(5-((5-methyl-1,3-oxazol-2-yl)methoxy)-2-pyrazinyl)ethenyl)phenyl)-5,8-dimethyl-4-thia-5,7-diazaspiro[2.5]oct-6-en-6-amine 4,4-dioxide], the IC50 was determined as 66 nM at BACE1 [1], 907 nM on human recombinant BACE2, 698000 nM on Cathepsin D (CatD) and 124 nM at BACE1 [2].

For `CN1C(N)=N[C@](C)(c2cc(/C=C(\F)c3ncc(C(F)(F)F)cc3Cl)ccc2F)CS1(=O)=O` [Example 242, (5R)-5-(5-((Z)-2-(3-chloro-5-(trifluoromethyl)-2-pyridinyl)-2-fluoroethenyl)-2-fluorophenyl)-2,5-dimethyl-5,6-dihydro-2H-1,2,4-thiadiazin-3-amine 1,1-dioxide], the IC50 on BACE1 [1] came to 5 nM; on human recombinant BACE2, 10 nM; on Cathepsin D (CatD) it was 99900 nM; on BACE1 [2], 26 nM.

Take `CN1C(N)=N[C@](C)(c2cc(/C=C(\F)c3cnc(C#CC4CC4)cn3)ccc2F)CS1(=O)=O` [Example 248, (R,Z)-3-amino-5-(5-(2-(5-(cyclopropylethynyl)pyrazin-2-yl)-2-fluorovinyl)-2-fluorophenyl)-2,5-dimethyl-5,6-dihydro-2H-1,2,4-thiadiazine 1,1-dioxide]: the IC50 on BACE1 [1] is 3 nM; at human recombinant BACE2, 16 nM; at Cathepsin D (CatD), 12700 nM; against BACE1 [2], 13 nM.

As to `CN1C(N)=N[C@](C)(c2cc(/C=C(\F)c3ccc(F)cn3)ccc2F)CS1(=O)=O` [Example 240, (5R)-5-(2-fluoro-5-((Z)-2-fluoro-2-(5-fluoro-2-pyridinyl)ethenyl)phenyl)-2,5-dimethyl-5,6-dihydro-2H-1,2,4-thiadiazin-3-amine 1,1-dioxide], the IC50 on BACE1 [1] worked out at 34 nM; on human recombinant BACE2 it was 8 nM; at Cathepsin D (CatD), 375000 nM; at BACE1 [2] it was 67 nM.

As for `CN1C(N)=N[C@](C)(c2cc(/C=C(\F)c3cnc(OCC(F)(F)C(F)F)cn3)ccc2F)CS1(=O)=O` [Example 148, (R,Z)-3-amino-5-(2-fluoro-5-(2-fluoro-2-(5-(2,2,3,3-tetrafluoropropoxy)pyrazin-2-yl)vinyl)phenyl)-2,5-dimethyl-5,6-dihydro-2H-1,2,4-thiadiazine 1,1-dioxide], the IC50 on BACE1 [1] came out at 18 nM; at human recombinant BACE2 it was 217 nM; on Cathepsin D (CatD) it was 25300 nM; on BACE1 [2], 88 nM.

Consider `C#C[C@H](CC)Oc1cnc(/C(F)=C/c2ccc(F)c([C@]3(C)CS(=O)(=O)C(C)(C)C(N)=N3)c2)cn1` (single isomer, unassigned) [Example 178], for which the IC50 on BACE1 [1] came to 3 nM; at human recombinant BACE2, 232 nM; on Cathepsin D (CatD) it was 77600 nM; on BACE1 [2], 22 nM.

For the molecule `Cc1nnc(COc2cnc(/C(F)=C/c3ccc(F)c([C@@]4(C)N=C(N)[C@@]5(CF)CC[C@@H]4S5(=O)=O)c3)cn2)o1` [Example 119, (1R,4R,5S)-2-amino-4-(2-fluoro-5-((Z)-2-fluoro-2-(5-((5-methyl-1,3,4-oxadiazol-2-yl)methoxy)pyrazin-2-yl)vinyl)phenyl)-1-(fluoromethyl)-4-methyl-8-thia-3-azabicyclo[3.2.1]oct-2-ene 8,8-dioxide], the IC50 at BACE1 [1] was 21 nM; at human recombinant BACE2 it was 182 nM; at Cathepsin D (CatD), greater than 400000 nM; at BACE1 [2], 60 nM.
